Measured values: patent US20260193668A1, “NOVEL PEPTIDES AND USE THEREOF FOR MODULATING PROTEIN ACCUMULATION” (UNIVERSITE TOULOUSE III - PAUL SABATIER, priority 2022, published 2026)

Legend:
[1] = tested on: AP2; assay: Quantification of AP2 by Western blot in A. thaliana leaves; assay type: in vivo, Arabidopsis thaliana; conditions: A. thaliana leaves treated for 5 days with 100 μM peptide
Procedure: (§1) (a) Schematic representation of a gene encoding altORFs producing altPEPs. (b) ORF ranking distribution of altPEPs detected by MS. (c) Frequency of altPEPs detected by MS by length ranges. (d) Main root length of A. thaliana seedlings treated with 100 μM peptide for 4 days. (e, f) Quantification of DCL1 expression by RT-qPCR (e) and Western blot using anti-DCL1 antibodies (f) in A. thaliana leaves treated for 5 days with 100 μM peptide. (g, h) Quantification of COI1, AP2, CPK3 (g) and EIN2 (h) by Western blot using specific antibodies in A. thaliana leaves treated for 5 days with 100 μM peptide.
(§2) N. benthamiana plants were treated by spraying the leaves 24 h before harvesting. For Luc assays, 100 μL of MS/2 liquid medium containing the peptides was added to each well. 5 μL of luciferin was added and luciferase activity was read 30 min later using a spectrophotometer. All other assays were performed by spraying or watering the plants. To quantify the protein level induced by cPEPs in Arabidopsis, rosettes were sprayed daily with 100 μM of peptide or its control for 5 days. Leaves were harvested 6 h after the last treatment for western blot analysis. […] Chlorophyll content was measured using the SPAD chlorophylometer (Konica Minolta). Leaf area was measured using ImageJ software. […]

[2] = tested on: AP2 mRNA; assay: Quantification by qRT PCR of AP2 expression in treated plants; assay type: in vivo, Arabidopsis thaliana; conditions: 100 μM peptide
Procedure: (§3) Quantification by qRT PCR of the expression of different genes in response to 100 μM of different peptides
(§4) (a) Treatment of plants with the peptide AtCOI1alt1; (b) Treatment of plants with the peptide AtAP2alt1; (c) Treatment of plants with the peptide AtEIN2alt1 (d) Treatment of plants with the peptide AtCPK3alt1.
(§5) Quantification of mRNAs was performed by qRT-PCR using appropriate primer pairs selected from the sequences: SEQ ID NOs: 367 to 374. Expression levels for the controls were set at 100. The primers used for the A. euteiches assays are described in Camborde et al (New Phytol. 233:2232-2248. 2022).

[3] = tested on: DCL1; assay: Western blot using anti-DCL1 antibodies in A. thaliana leaves; assay type: in vivo, Arabidopsis thaliana; conditions: A. thaliana leaves treated for 5 days with 100 μM peptide
Procedure: as §1, §2

[4] = tested on: DCL1 mRNA; assay: Quantification of DCL1 expression by RT-qPCR in A. thaliana leaves; assay type: in vivo, Arabidopsis thaliana; conditions: A. thaliana leaves treated for 5 days with 100 μM peptide
Procedure: as §1, §5
N. benthamiana plants were treated by spraying the leaves 24 h before harvesting. […] 5 μL of luciferin was added and luciferase activity was read 30 min later using a spectrophotometer. […] To quantify the protein level induced by cPEPs in Arabidopsis, rosettes were sprayed daily with 100 μM of peptide or its control for 5 days. […] Chlorophyll content was measured using the SPAD chlorophylometer (Konica Minolta). Leaf area was measured using ImageJ software. […]

[5] = tested on: A. thaliana seedlings; assay: Main root length of A. thaliana seedlings treated with altPEP; assay type: in vivo, Arabidopsis thaliana; conditions: A. thaliana seedlings treated with 100 μM peptide for 4 days
Procedure: as §1
To study the biological roles of altPEPs, two types of altPEPs were studied: one well conserved among Brassicaceae, and corresponding to the altORF18 of the DCL1 gene (FIG. 3c), and another, corresponding to the first altORF of the COI1 gene, but not conserved among Brassicaceae. A. thaliana seedlings were treated with the peptide AtDCL1alt18 (SEQ ID NO: 224) and root development analysed, since dcl mutants show longer main roots (Park, W., et al. Curr. Biol. 12, 1484-1495 (2002)).

[6] = tested on: EIN2 mRNA; assay: Quantification by qRT PCR of EIN2 expression in treated plants; assay type: in vivo, Arabidopsis thaliana; conditions: 100 μM peptide
Procedure: as §3, §4, §5

[7] = tested on: EIN2; assay: Quantification of EIN2 by Western blot in A. thaliana leaves; assay type: in vivo, Arabidopsis thaliana; conditions: A. thaliana leaves treated for 5 days with 100 μM peptide
Procedure: as §1, §2

[8] = tested on: A. thaliana seedlings; assay: Length of primary roots of A. thaliana seedlings treated with cPEP; assay type: in vivo, Arabidopsis thaliana; conditions: versus Scrambled cPEPdcl1
Procedure: (§6) (a, b) Length of primary roots of A. thaliana seedlings treated with a Scrambled cPEPdcl1 or with a cPEPdcl1. (c) Relative chlorophyll content of A. thaliana seedlings treated with the corresponding peptide. (d) Resumption of growth of A. thaliana seedlings after heat shock at 45° C. for 45 min and treated with the corresponding peptide. (e) Relative lesion area of A. thaliana seedlings infected with B. cinerea and treated with the indicated peptide. (f) Measurement of the flowering day of A. thaliana plants treated with the indicated peptides. (g, h) Flowering day of A. thaliana plants treated with an irrelevant peptide or a mixture of cPEPs (targeting EIN2, BR11, BAK1 and WUS). (i, j) Leaf area of A. thaliana plants treated with an irrelevant peptide or a mixture of cPEPs (targeting EIN2, BR11, BAK1 and WUS).
The work then focused on different A. thaliana proteins involved in different plant functions. […] 12:479-492, 2000), improved the viability of seedlings to heat shock (FIG. 7d). In parallel, several A. thaliana plant defence regulators were targeted, namely AGB1 (SEQ ID NO: 195), MAPKKK3 (SEQ ID NO: 187), JAR1 (SEQ ID NO: 192), MAPKKK5 (SEQ ID NO: 188), ABCG34 (SEQ ID NO: 194) and CPK3 (SEQ ID NO: 162). […] Next, several cPEPs were designed targeting different proteins involved in plant development by measuring the day of flowering. […]

[9] = tested on: A. thaliana seedlings; assay: Heat shock resistance test on A. thaliana seedlings; assay type: in vivo, Arabidopsis thaliana; conditions: 100 μM peptide, 45° C. for 45 min
Procedure: as §6
N. benthamiana plants were treated by spraying the leaves 24 h before harvesting. For Luc assays, 100 μL of MS/2 liquid medium containing the peptides was added to each well. 5 μL of luciferin was added and luciferase activity was read 30 min later using a spectrophotometer. […] To quantify the protein level induced by cPEPs in Arabidopsis, rosettes were sprayed daily with 100 μM of peptide or its control for 5 days. […] Chlorophyll content was measured using the SPAD chlorophylometer (Konica Minolta). Leaf area was measured using ImageJ software. […]

[10] = tested on: M. truncatula roots; assay: Quantification of nodules on M. truncatula roots; assay type: in vivo, Medicago truncatula; conditions: versus irrelevant peptide
Description: (a) FRET-FLIM analysis of the interaction between cPEPnsp1-FAM and NSP1 (left) or NSP1ΔcPEP (right) in planta. (b) qRT-PCR quantification of NSP1 expression in M. truncatula roots treated with cPEPnsp1 or Scrambled cPEPnsp1. (c) GUS quantification of peptide-treated M. truncatula roots carrying the Pro NSP1-NSP1-GUS fusion. (d, e) Quantification of NSP1 expression in N. benthamiana leaves after infiltration of different constructs: ‘wild type’ i.e. version of NSP1 wherein the cPEP sequence has been deleted (NSP1 ΔcPEP) or version of NSP1 wherein the cPEP sequence has been replaced by an artificial sequence (NSP1 ΔcPEP-cPEPartificial), with an empty vector (control) or cPEPnsp1 or cPEPartificial. (f, g) Formation of lateral roots of M. truncatula WT seedlings, nsp1 or overexpressing NSP1, in response to cPEPnsp1 or Scrambled cPEPnsp1. (h, i) Quantification of nodules on roots of M. truncatula roots treated with an irrelevant peptide or cPEPskl. […]
In order to verify whether cPEPs can target any protein, the activity of 12 cPEPs targeting 12 different proteins for which antibodies were available was studied and validated in three different plant species. The question was whether the increase in the quantity of proteins observed after treatment with cPEP was sufficient to modulate plant development. […]

## AtAP2alt1 (MGISYLGLWETSLLRWI; AtAP2alt1)
[1]
  AP2 protein level (Western blot): increase
[2]
  AP2 mRNA expression (qRT PCR): without detecting any change

## AtDCL1alt18 (MLMLNPPRHHGILQRPTCLSLLLTIRLWNP; AtDCL1alt18)
[3]
  DCL1 protein accumulation (Western blot): increased
[4]
  DCL1 mRNA expression (qRT-PCR): no effect
[5]
  root development (main root length): decrease in root development

## AtEIN2alt1 (MGCKYRRRCSFRV; AtEIN2alt1)
[6]
  EIN2 mRNA expression (qRT PCR): without detecting any change
[7]
  EIN2 protein level (Western blot): increase

## cPEPdcl1 (SRAFGSVFFSGD; cPEPdcl1)
[8]
  primary root growth: reduction

## cPEPhsp101 (MQDMLNSLLCI; cPEPhsp101) [SEQ ID NO: 404, cPEP targeting the A. thaliana HSP101 protein]
[9]
  viability of seedlings to heat shock: improved

## cPEPskl (TETVGHEDAS; cPEPskl)
[10]
  amount of nodules: decrease
